In data set [1] the test system is RAW264.7. Briefly: Anti-inflammatory activity against mouse RAW264.7 cells assessed as inhibition of LPS-induced NO production at 5 uM measured after 24 hrs incubation by Griess assay relative to control. The class given is functional. On the technique in general: Griess reagent forms a coloured azo dye with nitrite.
Data set [2] can be described thus: Cytotoxicity against mouse RAW264.7 cells assessed as cell viability at 5 uM measured after 24 hrs incubation by MTT assay relative to control. The class given is toxicity, cell-based. The settings on record: read-out: Activity.
For data set [3], the system named is RAW264.7. Briefly: Anti-inflammatory activity against mouse RAW264.7 cells assessed as inhibition of LPS-induced NO production measured after 24 hrs incubation by Griess assay. It is filed as functional, cell-based. The settings on record: RAW264.7, 24 h.
Data set [4] deals with RAW264.7. Briefly: Anti-inflammatory activity against mouse RAW264.7 cells assessed as inhibition of LPS-induced COX2 level pretreated for 1 hr followed by induced with LPS measured after 24 hrs by ELISA. The class given is functional, cell-based. Conditions: dose 2.5-20 µM, time 25.0 hrs.
Data set [5] deals with RAW264.7. Description: Anti-inflammatory activity against mouse RAW264.7 cells assessed as inhibition of LPS-induced TNFalpha level pretreated for 1 hr followed by induced with LPS measured after 24 hrs by ELISA. The class given is functional, cell-based. The settings on record: dose 2.5-20 µM, time 25.0 hrs. (In general: ELISA stands for enzyme-linked immunosorbent assay.)

Regarding `C[C@]12CC[C@H]3[C@@H](CC=C4C[C@@H](O)CC[C@@]43C)[C@@H]1CC[C@@H]2C1=NN(C2=NC(=O)CS2)C(c2cccc(Cl)c2)C1` (stereo not given in full), the inhibition at 5 µM with RAW264.7 [1] was determined as 50.7%. The viability at 24 h, 5 µM in data set [2] worked out at 73.3%. For the same compound, the 50% inhibitory concentration (IC50) with RAW264.7 [3] worked out at 5.14 µM.

In the case of `COc1ccccc1C1CC([C@H]2CC[C@H]3[C@@H]4CC=C5C[C@@H](O)CC[C@]5(C)[C@H]4CC[C@]23C)=NN1C1=NC(=O)CS1` (stereo not given in full), the inhibition at 5 µM in the data set on RAW264.7 [1] turned out to be 55.5%. Also, the viability at 24 h, 5 µM in data set [2] was determined as 70%.

Consider `Cc1ccc(C2CC([C@H]3CC[C@H]4[C@@H]5CC=C6C[C@@H](O)CC[C@]6(C)[C@H]5CC[C@]34C)=NN2C2=NC(=O)CS2)cc1` (stereo not given in full), for which the inhibition at 5 µM in the data set with RAW264.7 [1] is 35.4%. For the same compound, the viability at 24 h, 5 µM in data set [2] was determined as 88.5%.

For `C[C@]12CC[C@H]3[C@@H](CC=C4C[C@@H](O)CC[C@@]43C)[C@@H]1CC[C@@H]2C1=NN(C2=NC(=O)CS2)C(c2ccccc2OCc2ccccc2)C1` (stereo not given in full), the inhibition at 5 µM with RAW264.7 [1] worked out at 48.2%. The viability at 24 h, 5 µM in data set [2] came out at 69%.

With `C[C@]12CC[C@H]3[C@@H](CC=C4C[C@@H](O)CC[C@@]43C)[C@@H]1CC[C@@H]2C1=NN(C2=NC(=O)CS2)C(c2ccc(Cl)cc2)C1` (stereo not given in full), the inhibition at 5 µM in the data set on RAW264.7 [1] was 46.3%. Besides, the viability at 24 h, 5 µM in data set [2] was 85.1%. For the same compound, the IC50 with RAW264.7 [3] worked out at 4.07 µM.

As for `Cc1cccc(C2CC([C@H]3CC[C@H]4[C@@H]5CC=C6C[C@@H](O)CC[C@]6(C)[C@H]5CC[C@]34C)=NN2C2=NC(=O)CS2)c1` (stereo not given in full), in the data set on RAW264.7 [1], the inhibition at 5 µM stood at 51.9%. Further, the viability at 24 h, 5 µM in data set [2] is 75.9%. In addition, the IC50 in the data set with RAW264.7 [3] is 2.9 µM.

As for `C[C@]12CC[C@H]3[C@@H](CC=C4C[C@@H](O)CC[C@@]43C)[C@@H]1CC[C@@H]2C1=NN(C2=NC(=O)CS2)C(c2ccccc2Cl)C1` (stereo not given in full), the inhibition at 5 µM in the data set with RAW264.7 [1] stood at 52.6%. Besides, the viability at 24 h, 5 µM in data set [2] is 81.1%. Further, the IC50 with RAW264.7 [3] turned out to be 12.2 µM.

Regarding `C[C@]12CC[C@H]3[C@@H](CC=C4C[C@@H](O)CC[C@@]43C)[C@@H]1CC[C@@H]2C1=NN(C2=NC(=O)CS2)C(c2ccccc2F)C1` (stereo not given in full), the inhibition at 5 µM in the data set with RAW264.7 [1] was determined as 46.8%. The viability at 24 h, 5 µM in data set [2] came to 86.4%. Further, the IC50 in the data set on RAW264.7 [3] is 5.41 µM.

As to `C[C@]12CC[C@H]3[C@@H](CC=C4C[C@@H](O)CC[C@@]43C)[C@@H]1CC[C@@H]2C1=NN(C2=NC(=O)CS2)C(c2ccc(S(C)(=O)=O)cc2)C1` (stereo not given in full), the inhibition at 5 µM in the data set with RAW264.7 [1] came out at 47.3%. Moreover, the viability at 24 h, 5 µM in data set [2] is 74.5%.

Regarding `C[C@]12CC[C@H]3[C@@H](CC=C4C[C@@H](O)CC[C@@]43C)[C@@H]1CC[C@@H]2C1=NN(C2=NC(=O)CS2)C(c2ccc(F)cc2)C1` (stereo not given in full), in the data set with RAW264.7 [1], the inhibition at 5 µM was determined as 44.7%. In data set [2], the viability at 24 h, 5 µM is 90.9%. For the same compound, the IC50 in the data set on RAW264.7 [3] came to 4.24 µM.

For `COc1ccc(C2CC([C@H]3CC[C@H]4[C@@H]5CC=C6C[C@@H](O)CC[C@]6(C)[C@H]5CC[C@]34C)=NN2C2=NC(=O)CS2)cc1` (stereo not given in full), the inhibition at 5 µM with RAW264.7 [1] was determined as 30.7%. Moreover, in data set [2], the viability at 24 h, 5 µM worked out at 95.9%.

On to `C[C@]12CC[C@H]3[C@@H](CC=C4C[C@@H](O)CC[C@@]43C)[C@@H]1CC[C@@H]2C1=NN(C2=NC(=O)CS2)C(c2ccc(C#N)cc2)C1` (stereo not given in full), for which the inhibition at 5 µM with RAW264.7 [1] worked out at 48.8%. The viability at 24 h, 5 µM in data set [2] came out at 93.4%. Further, the IC50 with RAW264.7 [3] is 6.89 µM.

For the compound `C[C@@H]1C[C@H]2[C@@H]3CCC4=CC(=O)C=C[C@]4(C)[C@@]3(F)[C@@H](O)C[C@]2(C)[C@@]1(O)C(=O)CO` [DEXAMETHASONE], the inhibition result in the data set with RAW264.7 [4] and in the data set with RAW264.7 [5] was “Dose-Dependent Effect” each time. In addition, the inhibition at 5 µM in the data set with RAW264.7 [1] was found to be 42.3%. Besides, the viability at 24 h, 5 µM in data set [2] came out at 92%. The IC50 in the data set on RAW264.7 [3] was found to be 3.8 µM.

Turning to `C[C@]12CC[C@H]3[C@@H](CC=C4C[C@@H](O)CC[C@@]43C)[C@@H]1CC[C@@H]2C1=NN(C2=NC(=O)CS2)C(c2ccc(Br)cc2)C1` (stereo not given in full), the inhibition entry in the data set on RAW264.7 [4] and in the data set on RAW264.7 [5] was “Dose-Dependent Effect” throughout. Further, the inhibition at 5 µM in the data set with RAW264.7 [1] is 45.4%. In addition, the viability at 24 h, 5 µM in data set [2] was 85.5%. Also, the IC50 with RAW264.7 [3] stood at 2.27 µM.

As for `CSc1ccc(C2CC([C@H]3CC[C@H]4[C@@H]5CC=C6C[C@@H](O)CC[C@]6(C)[C@H]5CC[C@]34C)=NN2C2=NC(=O)CS2)cc1` (stereo not given in full), the inhibition at 5 µM in the data set with RAW264.7 [1] turned out to be 45.2%. Moreover, in data set [2], the viability at 24 h, 5 µM is 82.2%.

Regarding `CCc1ccc(C2CC([C@H]3CC[C@H]4[C@@H]5CC=C6C[C@@H](O)CC[C@]6(C)[C@H]5CC[C@]34C)=NN2C2=NC(=O)CS2)cc1` (stereo not given in full), the inhibition at 5 µM with RAW264.7 [1] came out at 39.9%. Further, the viability at 24 h, 5 µM in data set [2] was found to be 82.8%.

For the compound `CCOc1ccc(C2CC([C@H]3CC[C@H]4[C@@H]5CC=C6C[C@@H](O)CC[C@]6(C)[C@H]5CC[C@]34C)=NN2C2=NC(=O)CS2)cc1` (stereo not given in full), the inhibition entry in the data set with RAW264.7 [4] and in the data set with RAW264.7 [5] was “Dose-Dependent Effect” throughout. For the same compound, the inhibition at 5 µM in the data set on RAW264.7 [1] was determined as 47.8%. Further, in data set [2], the viability at 24 h, 5 µM is 87.7%. In addition, in the data set with RAW264.7 [3], the concentration for half-maximal inhibition (IC50) is 2.36 µM.

Usually inhibition stands for how much of the control response was suppressed. One may read the IC50 as the midpoint of a concentration-inhibition curve.

Values taken from ChEMBL document CHEMBL5500377, “Design, synthesis and molecular modeling of novel D-ring substituted steroidal 4,5-dihydropyrazole thiazolinone derivatives as anti-inflammatory agents by inhibition of COX-2/iNOS production and down-regulation of NF-κB/MAPKs in LPS-induced RAW264.7 macrophage cells” (Eur J Med Chem, 2024).
